Measurements from patent US7625411B2, “Insecticidally treated fabric having improved wash durability and insecticidal efficacy and method for its production” (Piedmont Chemical Industries I, LLC, priority 2004, dated 2009).

Assay: Wash durability of permethrin-treated polyester fabric: accelerated laundering (AATCC Test Method 61-1996), solvent extraction, gas chromatography
Type: physicochemical
Conditions: without the binder system, just after the first wash
Protocol: A polyester warp fleece weighing approximately 7.6 oz. per linear yard was used in this trial. Based on the weight of the fabric, calculating the percent wet pick-up the of fabric using production sqeeze pressures in the pad application, and the amount of permethrin target (1.25 g/m^2), the quantity of permethrin to be added to the pad bath was calculated using the above equation to be 1.68%. […] The fabric was padded and dried at a normal drying temperature for polyester (330 to 350° F.).
After the application of permethrin to the fabric, samples of the treated fabric were extracted with toluene according to the procedure outlined below in order to determine the amount of permethrin loaded onto the fabric. A swatch of fabric measuring approximately two feet by two feet is cut from the treated roll of fabric. From that swatch, 3 smaller pieces measuring 10 cm by 10 cm, were cut and used for extraction of permethrin. Each 10 by 10 swatch was placed in a 250 ml flat-bottomed flask, and from 50-75 ml of an extraction solvent (e.g., 1,1,1-trichloroethane) was added thereto. The flask was then equipped with a reflux condenser and placed on a hot plate and allowed to reflux for 0.5-0.75 hr. Once the samples have finished refluxing and have cooled, 0.05mg/ml of dioctylphthalate (“DOP”) is added to the liquid fraction as an internal standard for gas chromatography (“gc”). […]

CC1(C)C(C=C(Cl)Cl)C1C(=O)OCc1cccc(Oc2ccccc2)c1 (centres unmarked) [permethrin]
permethrin remaining in the fabric: 0.20-0.30 g/m^2 | permethrin washed out of the fabric, of the initial amount loaded: 60-80%
